# Laboratory results from patent publication US5096909A, “Fucosidase inhibitor” (Monsanto Company, priority 1990, dated 1992).
# Experiments:
# [1] = pKa (Table 1); format: physicochemical
# [2] = test system: N-acetyl-β-D-hexosaminidase; assay: Specificity: inhibition of other glycosidases in human liver extract at 1 mM, N-acetyl-β-D-hexosaminidase; format: biochemical; conditions: 4-umbelliferyl glycoside substrate 0.5 mM, optimal pH
# Description: Tissue Post-mortem human liver, which had been stored at -20° C. until required was homogenized in deionized water (50%, w/v) in a Potter-Elvehjem homogenizer and then centrifuged at 37,000 g for 30 min in an MSE 18 centrifuge. The resultant supernatant was used as the source of human glycosidases. A lyophilized extract of liver from Charonia lampas was obtained from Seikagaku Kogyo Co., Japan for the isolation of α-L-fucosidase by the published procedure of Iijima and Egami, J. Biochem. 70, 75-78 (1971).
# Enzyme Assays The glycosidase activities in an extract of human liver were assayed by using the appropriate fluorigenic 4-umbelliferyl glycoside substrate (Koch-Light, Haverhill, Suffolk, U.K.) with a concentration of 0.5 mM at the optimal pH for each enzyme [Burditt et al., Biochem. J. 189, 467-473 (1980)]. The specificity of the inhibitors was determined by assaying the glycosidases in the presence of and absence of a 1 mM solution of each compound. The nature of the inhibition of human α-L-fucosidase, the value of Ki determined by using the Dixon graphical procedure and the effect of pH on the inhibition were investigated as described previously by Al Daher et al., Biochem. J. 258, 613-615 (1989). […]
# [3] = test system: mammalian α-L-fucosidases; conditions: cited from earlier work
# [4] = test system: human immunodeficiency virus; conditions: cited from earlier work
# [5] = test system: α-glucosidase; conditions: cited from earlier work
# [6] = test system: digestive α-glucosidase; conditions: cited from earlier work
smiles,measurement,setting,value
"C[C@H]1N[C@@H](CO)[C@@H](O)[C@H](O)[C@@H]1O [(6), 2,6-Imino-2,6,7-trideoxy-D-glycero-D-gluco-heptitol]",pKa,[1],7.7
"C[C@@H]1NC[C@@H](O)[C@H](O)[C@@H]1O [DFJ, 1,5-Dideoxy-1,5-imino-L-fucitol]",pKa,[1],8.4
same,Other specificities (% inhibition at 1 mM): N-acetyl-β-D-hexosaminidase,[2],59%
same,inhibition of a number of mammalian α-L-fucosidases,[3],very powerful and highly specific inhibitor of a number of mammalian α-L-fucosidases
"OC[C@H]1NC[C@H](O)[C@@H](O)[C@@H]1O [deoxynojirimycin (1), deoxynojirimycin]",inhibition of human immunodeficiency virus synctium formation,[4]; syncytium formation,inhibit human immunodeficiency virus synctium formation
same,inhibition of human immunodeficiency virus replication,[4]; virus replication,inhibit human immunodeficiency virus synctium formation and virus replication
same,α-glucosidase inhibition,[5],α-glucosidase inhibitor
OC[C@H]1N[C@H](CO)[C@@H](O)[C@H](O)[C@H]1O [α-Homonojirimycin],inhibition of digestive α-glucosidase activity,[6],potent inhibitor of digestive α-glucosidase activity
